Assay results reported in the NIST ThermoML archive (doi:10.1021/je400917j).
Numbers after ± are expanded uncertainties.

Assay: xn = mol fraction of the nth substance listed
Settings: 101 kPa, Liquid; for mass density: Vibrating tube method

CCCC(C)O (stereo not drawn) [pentan-2-ol] + CC(=O)N(C)C
Settings | mass density, 298.15 K [kg/m3] | mass density, 303.15 K [kg/m3] | mass density, 308.15 K [kg/m3] | mass density, 313.15 K [kg/m3] | viscosity, 298.15 K [mPa·s] | viscosity, 303.15 K [mPa·s] | viscosity, 308.15 K [mPa·s] | viscosity, 313.15 K [mPa·s]
x2 = 0 | 805.4 ± 0.2 | 800.9 ± 0.2 | 796.9 ± 0.2 | 792.6 ± 0.2 | 3.5 ± 0.1 | 2.83 ± 0.082 | 2.35 ± 0.069 | 1.98 ± 0.058
x2 = 0.0811 | 813.4 ± 0.2 | 809 ± 0.2 | 804.9 ± 0.2 | 800.3 ± 0.2 | 2.87 ± 0.083 | 2.42 ± 0.071 | 2.08 ± 0.061 | 1.75 ± 0.052
x2 = 0.16 | 821.8 ± 0.2 | 817.3 ± 0.2 | 813 ± 0.2 | 808.2 ± 0.2 | 2.35 ± 0.069 | 2.01 ± 0.059 | 1.8 ± 0.053 | 1.52 ± 0.045
x2 = 0.2399 | 830.7 ± 0.2 | 826 ± 0.2 | 821.6 ± 0.2 | 816.6 ± 0.2 | 1.93 ± 0.057 | 1.69 ± 0.05 | 1.57 ± 0.047 | 1.33 ± 0.04
x2 = 0.35 | 843.5 ± 0.2 | 838.7 ± 0.2 | 834.1 ± 0.2 | 828.9 ± 0.2 | 1.52 ± 0.045 | 1.38 ± 0.041 | 1.29 ± 0.039 | 1.13 ± 0.034
x2 = 0.4398 | 854.5 ± 0.2 | 849.6 ± 0.2 | 845 ± 0.2 | 839.6 ± 0.2 | 1.3 ± 0.039 | 1.21 ± 0.036 | 1.14 ± 0.035 | 1.01 ± 0.031
x2 = 0.5595 | 870.1 ± 0.2 | 865 ± 0.2 | 860.4 ± 0.2 | 854.9 ± 0.2 | 1.13 ± 0.034 | 1.07 ± 0.033 | 0.99 ± 0.03 | 0.89 ± 0.027
x2 = 0.6499 | 882.5 ± 0.2 | 877.5 ± 0.2 | 872.8 ± 0.2 | 867.4 ± 0.2 | 1.05 ± 0.032 | 0.99 ± 0.03 | 0.91 ± 0.028 | 0.83 ± 0.026
x2 = 0.7398 | 895.4 ± 0.2 | 890.4 ± 0.2 | 885.8 ± 0.2 | 880.5 ± 0.2 | 0.99 ± 0.03 | 0.93 ± 0.029 | 0.86 ± 0.027 | 0.793 ± 0.025
x2 = 0.8499 | 912.1 ± 0.2 | 907.3 ± 0.2 | 902.8 ± 0.2 | 897.8 ± 0.2 | 0.95 ± 0.029 | 0.89 ± 0.027 | 0.82 ± 0.025 | 0.761 ± 0.024
x2 = 0.9398 | 926.5 ± 0.2 | 921.9 ± 0.2 | 917.5 ± 0.2 | 913 ± 0.2 | 0.938 ± 0.029 | 0.878 ± 0.027 | 0.804 ± 0.025 | 0.752 ± 0.024
